Test results: ChEMBL document CHEMBL1201862, “PubChem BioAssay data set” (2004)
Active and inactive are the calls of the source.

Legend:
[1] = target: Sphingosine 1-phosphate receptor 3 (Homo sapiens, UniProt Q99500); experiment: Dose response cell-based high throughput screening assay for antagonists of the Sphingosine 1-Phosphate Receptor 3 (S1P3). [Related pubchem assays: 1429, 485 ]; assay type: functional
[2] = target: 5-hydroxytryptamine receptor 1E (Homo sapiens, UniProt P28566); experiment: Counterscreen assay for S1P3 antagonists: Dose response cell-based high throughput screening assay to identify antagonists of the 5-Hydroxytryptamine Receptor Subtype 1E (5HT1E). [Related pubchem assays: 1429, 485 ]; assay type: functional
[3] = target: Cytochrome P450 2C19 (Homo sapiens, UniProt P33261); experiment: Cytochrome panel assay with activity outcomes. Panel member name: p450-cyp2c19 Compounds with AC50 equal or less than 10 uM are considered active; assay type: functional; settings: read-out: AC50
[4] = target: Ephrin type-A receptor 4 (Mus musculus, UniProt Q03137); experiment: inhibitors of EphA4 binding to KYL peptide, primary screen, biochemical, colorimetric, mouse EphA4 (AID 689); assay type: functional
[5] = target: T1, Cytochrome P450 3A4 (Homo sapiens, UniProt P08684)
[6] = target: T2, Zinc finger protein mex-5 (Caenorhabditis elegans, UniProt Q9XUB2); experiment: MEX-5/TCR-2 RNA interaction inhibitors, dose response, biochemical, C. elegans, fluorescence polarization (AID 1960)
T2 sequence (Q9XUB2 whole entry): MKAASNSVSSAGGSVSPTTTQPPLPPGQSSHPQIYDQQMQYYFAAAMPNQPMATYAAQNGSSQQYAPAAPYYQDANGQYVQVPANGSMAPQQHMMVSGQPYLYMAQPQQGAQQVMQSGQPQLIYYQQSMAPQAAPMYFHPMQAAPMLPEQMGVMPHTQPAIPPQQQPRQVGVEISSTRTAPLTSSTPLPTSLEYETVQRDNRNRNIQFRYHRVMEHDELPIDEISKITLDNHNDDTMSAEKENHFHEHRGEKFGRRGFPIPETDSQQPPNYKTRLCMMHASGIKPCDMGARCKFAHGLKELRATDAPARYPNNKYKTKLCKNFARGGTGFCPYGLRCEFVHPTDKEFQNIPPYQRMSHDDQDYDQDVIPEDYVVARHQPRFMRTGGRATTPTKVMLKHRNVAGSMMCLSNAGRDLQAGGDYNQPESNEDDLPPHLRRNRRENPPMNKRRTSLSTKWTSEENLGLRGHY

[7] = target: T3, RNA-binding protein pos-1 (Caenorhabditis elegans, UniProt G5EF15); experiment: inhibitors of POS-1/mex-3 RNA binding, dose response, biochemical, fluorescence polarization (AID 1964);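 further: purified POS-1 fused to maltose binding protein made in E. coli; potency of compounds blocking POS-1 binding to fluorescent RNA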
T3 sequence (G5EF15 whole entry): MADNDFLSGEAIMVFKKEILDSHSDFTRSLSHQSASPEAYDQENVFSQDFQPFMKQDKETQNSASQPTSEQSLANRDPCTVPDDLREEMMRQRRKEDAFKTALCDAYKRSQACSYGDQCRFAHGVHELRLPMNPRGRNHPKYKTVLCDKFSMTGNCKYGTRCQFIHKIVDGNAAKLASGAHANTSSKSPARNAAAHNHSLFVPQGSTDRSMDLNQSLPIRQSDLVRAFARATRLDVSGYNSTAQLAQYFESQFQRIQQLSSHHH

[8] = target: Mitogen-activated protein kinase 10 (Homo sapiens, UniProt P53779); experiment: Dose response biochemical screening assay for inhibitors of c-Jun N-Terminal Kinase 3 (JNK3). [Related pubchem assays: 746 ]
[9] = target: T4, Low molecular weight phosphotyrosine protein phosphatase (Homo sapiens, UniProt P24666); experiment: LMPTP phosphatase inhibitors, colorimetric pNPP readout, dose response, orthogonal assay, biochemical, absorbance, pNPP substrate, LMPTP-A isoform, set 2 (AID 743308); assay type: functional
T4 sequence (P24666 whole entry): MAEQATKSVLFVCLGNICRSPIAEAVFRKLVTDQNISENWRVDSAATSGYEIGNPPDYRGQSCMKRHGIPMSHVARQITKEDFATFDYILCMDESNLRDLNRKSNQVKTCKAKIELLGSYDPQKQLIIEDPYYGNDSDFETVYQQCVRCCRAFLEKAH

[10] = target: T4, Low molecular weight phosphotyrosine protein phosphatase; experiment: LMPTP phosphatase inhibitors, dose response, biochemical, OMFP substrate, fluorescence intensity, set 2 (AID 743307); assay type: functional
[11] = target: T5, Estrogen receptor beta (Homo sapiens, UniProt Q92731);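 further: recombinant ER-beta bound to coactivator SRC1 peptide in presence of estradiol agonist; inhibitors block coactivator peptide binding and lower the FRET signal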
[12] = target: T5, Estrogen receptor beta; experiment: ERβ–SRC-3 coactivator interaction inhibitors, confirmation, orthogonal assay, biochemical, ELISA, streptavidin-HRP readout (AID 1060)
[13] = Glucagon-like peptide 1 release potency, NCI-H716 cell line, dose-response, half-maximal inhibitory concentration (AID 1117344); assay type: functional, cell-based
[14] = half-maximal inhibitory concentration for glucagon-like peptide-1 release, STC-1 cell line, dose-response (AID 1117345); assay type: functional, cell-based
[15] = target: Epstein-Barr nuclear antigen 1 (Epstein-Barr virus (strain B95-8) (HHV-4) (Human herpesvirus 4), UniProt P03211); experiment: EBNA-1 inhibitors, dose response, biochemical, fluorescence polarization, 1536-well (AID 2381); parameters: species or system human gammaherpesvirus 4;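 further: fluorescence polarization of a Cy5 DNA probe bound by EBNA-1 protein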
[16] = target: Lytic switch protein BZLF1 (Epstein-Barr virus (strain B95-8) (HHV-4) (Human herpesvirus 4), UniProt P03206); experiment: EBV ZTA inhibitors, dose response, counter-screen for EBNA-1 inhibitor project, biochemical, fluorescence polarization, Epstein-Barr virus, 1536-well (AID 2377); parameters: species or system human gammaherpesvirus 4;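 further: fluorescence polarization of Cy5-labelled ZRE DNA probe bound by purified Zta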
[17] = target: Cytochrome P450 2C9 (Homo sapiens, UniProt P11712); settings: Potency
[18] = cells
[19] = test system: Vero; experiment: cells; assay type: functional, cell-based; settings: Chlorocebus sabaeus
[20] = HEp-2 cell cytotoxicity, dose response, cytotoxicity control for RSV inhibitor project, HTS (AID 2410); assay type: functional; settings: human respiratory syncytial virus
[21] = test system: Vero; experiment: cytotoxicity of synthesized analogs in Vero cells, SAR follow-up, cytotoxicity control for West Nile virus antiviral project, cell-based, set II (AID 2402); assay type: functional; settings: Chlorocebus sabaeus
[22] = A Cell Based Assay for the Identification of Probe candidate Compounds with Anti- Venezuelan Equine Encephalitis virus. [Related pubchem assays: 2409, 2419, 1621, 2238, 2405, 2024, 2065, 2402, 2414, 1635, 1650, 2244 ]; assay type: functional
[23] = target: Voltage-dependent T-type calcium channel subunit alpha-1H (Homo sapiens, UniProt O95180); assay type: functional;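 further: channel activity triggered by adding a high calcium stimulation buffer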
[24] = target: T1, Cytochrome P450 3A4; settings: Potency
[25] = target: 5-hydroxytryptamine receptor 1A (Homo sapiens, UniProt P08908); assay type: functional
Chain of 5-hydroxytryptamine receptor 1A (P08908 whole entry): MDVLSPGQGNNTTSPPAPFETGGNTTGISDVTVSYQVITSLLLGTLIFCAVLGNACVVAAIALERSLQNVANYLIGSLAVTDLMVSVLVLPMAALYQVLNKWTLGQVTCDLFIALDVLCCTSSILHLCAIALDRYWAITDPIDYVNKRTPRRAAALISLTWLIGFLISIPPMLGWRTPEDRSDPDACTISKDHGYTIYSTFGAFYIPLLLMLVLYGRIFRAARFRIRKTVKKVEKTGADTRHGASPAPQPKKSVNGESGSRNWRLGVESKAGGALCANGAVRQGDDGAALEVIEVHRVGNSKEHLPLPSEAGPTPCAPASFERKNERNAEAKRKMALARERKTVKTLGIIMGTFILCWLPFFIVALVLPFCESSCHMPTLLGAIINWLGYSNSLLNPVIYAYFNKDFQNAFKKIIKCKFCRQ

Chain of Ephrin type-A receptor 4 (Q03137 whole entry): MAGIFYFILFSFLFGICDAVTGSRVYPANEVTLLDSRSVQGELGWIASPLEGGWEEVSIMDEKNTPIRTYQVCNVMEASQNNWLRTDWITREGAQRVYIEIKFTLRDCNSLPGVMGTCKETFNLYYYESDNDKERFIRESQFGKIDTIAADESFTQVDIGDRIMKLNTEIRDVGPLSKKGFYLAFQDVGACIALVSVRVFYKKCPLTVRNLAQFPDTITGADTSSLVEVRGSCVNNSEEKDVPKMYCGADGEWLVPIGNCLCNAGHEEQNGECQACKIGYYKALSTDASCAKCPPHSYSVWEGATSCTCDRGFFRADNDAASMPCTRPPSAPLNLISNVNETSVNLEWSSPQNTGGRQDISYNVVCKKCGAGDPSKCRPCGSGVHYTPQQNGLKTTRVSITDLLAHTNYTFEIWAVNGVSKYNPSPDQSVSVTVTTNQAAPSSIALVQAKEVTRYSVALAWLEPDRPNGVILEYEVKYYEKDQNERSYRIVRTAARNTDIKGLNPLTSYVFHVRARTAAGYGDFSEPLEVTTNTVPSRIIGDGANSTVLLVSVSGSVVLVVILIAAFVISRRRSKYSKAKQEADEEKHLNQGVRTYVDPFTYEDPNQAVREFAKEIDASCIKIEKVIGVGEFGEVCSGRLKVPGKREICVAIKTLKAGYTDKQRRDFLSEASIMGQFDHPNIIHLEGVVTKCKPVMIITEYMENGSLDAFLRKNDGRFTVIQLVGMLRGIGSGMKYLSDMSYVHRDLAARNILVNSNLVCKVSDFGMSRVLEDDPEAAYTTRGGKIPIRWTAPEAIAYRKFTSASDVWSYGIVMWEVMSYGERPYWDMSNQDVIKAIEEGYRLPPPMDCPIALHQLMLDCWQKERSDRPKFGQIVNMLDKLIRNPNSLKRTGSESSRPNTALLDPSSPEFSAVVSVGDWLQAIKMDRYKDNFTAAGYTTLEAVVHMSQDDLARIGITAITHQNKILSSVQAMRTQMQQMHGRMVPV
Chain of Sphingosine 1-phosphate receptor 3 (Q99500 whole entry): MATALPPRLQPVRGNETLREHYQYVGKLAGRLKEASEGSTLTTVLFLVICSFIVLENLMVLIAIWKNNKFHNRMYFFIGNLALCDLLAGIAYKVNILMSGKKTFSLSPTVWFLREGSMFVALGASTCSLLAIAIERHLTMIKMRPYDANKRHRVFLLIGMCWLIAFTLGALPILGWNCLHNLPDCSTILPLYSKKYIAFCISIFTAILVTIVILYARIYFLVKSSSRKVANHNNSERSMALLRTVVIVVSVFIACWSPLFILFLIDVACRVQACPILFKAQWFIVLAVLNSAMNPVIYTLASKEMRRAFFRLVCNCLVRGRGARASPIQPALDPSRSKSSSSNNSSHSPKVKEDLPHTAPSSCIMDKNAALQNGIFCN
Chain of 5-hydroxytryptamine receptor 1E (P28566 whole entry): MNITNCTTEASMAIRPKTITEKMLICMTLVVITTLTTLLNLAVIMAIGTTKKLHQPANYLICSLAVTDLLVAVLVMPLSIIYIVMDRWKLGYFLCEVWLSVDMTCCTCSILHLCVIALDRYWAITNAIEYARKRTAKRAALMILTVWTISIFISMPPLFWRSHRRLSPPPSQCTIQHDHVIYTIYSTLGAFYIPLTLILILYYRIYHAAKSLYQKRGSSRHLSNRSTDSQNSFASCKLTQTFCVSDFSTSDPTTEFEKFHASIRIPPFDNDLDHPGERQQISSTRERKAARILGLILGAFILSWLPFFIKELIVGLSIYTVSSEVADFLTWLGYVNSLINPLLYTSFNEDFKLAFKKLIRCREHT
T1 sequence (P08684 whole entry): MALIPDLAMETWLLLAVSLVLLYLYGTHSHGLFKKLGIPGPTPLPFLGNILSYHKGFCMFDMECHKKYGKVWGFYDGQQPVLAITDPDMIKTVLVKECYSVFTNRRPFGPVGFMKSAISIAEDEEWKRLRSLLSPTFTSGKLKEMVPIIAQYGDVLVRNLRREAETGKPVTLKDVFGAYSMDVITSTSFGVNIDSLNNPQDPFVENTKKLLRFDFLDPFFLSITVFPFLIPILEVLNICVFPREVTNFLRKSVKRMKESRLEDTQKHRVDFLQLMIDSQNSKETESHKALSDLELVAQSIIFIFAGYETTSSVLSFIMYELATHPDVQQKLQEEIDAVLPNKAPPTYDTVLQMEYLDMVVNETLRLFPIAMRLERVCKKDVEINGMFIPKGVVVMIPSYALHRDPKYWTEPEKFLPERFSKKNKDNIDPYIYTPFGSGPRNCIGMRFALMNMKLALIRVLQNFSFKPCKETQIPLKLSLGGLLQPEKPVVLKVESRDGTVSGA
T5 sequence (Q92731 whole entry): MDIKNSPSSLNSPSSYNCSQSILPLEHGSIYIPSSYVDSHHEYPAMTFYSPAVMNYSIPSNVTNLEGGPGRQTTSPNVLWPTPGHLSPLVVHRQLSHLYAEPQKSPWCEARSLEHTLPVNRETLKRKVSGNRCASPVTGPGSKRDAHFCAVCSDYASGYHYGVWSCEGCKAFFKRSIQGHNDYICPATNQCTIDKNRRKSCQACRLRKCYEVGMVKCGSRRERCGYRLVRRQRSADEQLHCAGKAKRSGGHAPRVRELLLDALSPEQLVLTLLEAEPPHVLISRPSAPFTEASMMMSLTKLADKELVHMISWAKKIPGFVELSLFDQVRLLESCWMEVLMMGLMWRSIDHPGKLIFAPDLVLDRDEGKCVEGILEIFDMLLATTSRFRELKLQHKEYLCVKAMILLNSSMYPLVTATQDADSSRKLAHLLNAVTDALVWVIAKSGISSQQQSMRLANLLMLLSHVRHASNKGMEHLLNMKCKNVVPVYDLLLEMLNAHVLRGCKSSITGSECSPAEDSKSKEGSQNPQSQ
Chain of Cytochrome P450 2C9 (P11712 whole entry): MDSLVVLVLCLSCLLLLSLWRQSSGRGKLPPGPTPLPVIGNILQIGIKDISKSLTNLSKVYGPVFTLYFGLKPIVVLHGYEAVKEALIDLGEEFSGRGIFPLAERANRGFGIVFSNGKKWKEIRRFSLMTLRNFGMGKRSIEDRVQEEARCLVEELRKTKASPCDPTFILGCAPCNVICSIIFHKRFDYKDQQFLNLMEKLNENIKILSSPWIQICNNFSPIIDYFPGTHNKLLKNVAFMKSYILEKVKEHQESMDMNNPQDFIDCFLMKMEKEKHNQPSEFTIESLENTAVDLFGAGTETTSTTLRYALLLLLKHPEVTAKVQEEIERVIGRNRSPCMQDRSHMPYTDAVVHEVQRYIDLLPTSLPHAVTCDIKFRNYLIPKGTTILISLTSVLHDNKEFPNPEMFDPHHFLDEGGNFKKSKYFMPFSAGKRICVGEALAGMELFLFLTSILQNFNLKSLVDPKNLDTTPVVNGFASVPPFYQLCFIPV
Chain of Cytochrome P450 2C19 (P33261 whole entry): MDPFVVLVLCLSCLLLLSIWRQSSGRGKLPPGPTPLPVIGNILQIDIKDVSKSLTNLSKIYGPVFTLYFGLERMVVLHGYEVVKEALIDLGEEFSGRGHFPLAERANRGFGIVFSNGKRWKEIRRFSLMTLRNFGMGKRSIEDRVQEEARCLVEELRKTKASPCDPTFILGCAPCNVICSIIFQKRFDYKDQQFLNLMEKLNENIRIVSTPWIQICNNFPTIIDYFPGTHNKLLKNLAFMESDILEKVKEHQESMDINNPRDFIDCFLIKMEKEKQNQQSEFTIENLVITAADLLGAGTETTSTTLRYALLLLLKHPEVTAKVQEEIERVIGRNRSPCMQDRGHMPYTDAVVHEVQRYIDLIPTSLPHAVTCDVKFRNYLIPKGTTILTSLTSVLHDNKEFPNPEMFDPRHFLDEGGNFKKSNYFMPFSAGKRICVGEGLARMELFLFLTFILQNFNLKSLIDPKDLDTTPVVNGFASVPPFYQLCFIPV
Chain of Mitogen-activated protein kinase 10 (P53779 whole entry, canonical isoform): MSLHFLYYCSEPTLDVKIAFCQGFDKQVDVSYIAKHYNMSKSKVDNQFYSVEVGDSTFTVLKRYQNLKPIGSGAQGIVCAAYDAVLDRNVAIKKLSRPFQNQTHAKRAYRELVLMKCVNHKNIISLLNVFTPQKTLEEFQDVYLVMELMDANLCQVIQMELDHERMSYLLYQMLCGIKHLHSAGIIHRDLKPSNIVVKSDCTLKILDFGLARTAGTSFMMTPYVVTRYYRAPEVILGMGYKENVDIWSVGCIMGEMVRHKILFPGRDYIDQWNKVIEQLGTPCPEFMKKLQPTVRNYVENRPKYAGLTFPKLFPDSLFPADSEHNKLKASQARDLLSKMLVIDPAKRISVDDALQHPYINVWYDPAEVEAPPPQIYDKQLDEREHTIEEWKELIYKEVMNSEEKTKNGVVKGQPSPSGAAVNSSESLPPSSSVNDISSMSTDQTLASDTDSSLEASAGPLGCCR
Chain of Lytic switch protein BZLF1 (P03206 whole entry): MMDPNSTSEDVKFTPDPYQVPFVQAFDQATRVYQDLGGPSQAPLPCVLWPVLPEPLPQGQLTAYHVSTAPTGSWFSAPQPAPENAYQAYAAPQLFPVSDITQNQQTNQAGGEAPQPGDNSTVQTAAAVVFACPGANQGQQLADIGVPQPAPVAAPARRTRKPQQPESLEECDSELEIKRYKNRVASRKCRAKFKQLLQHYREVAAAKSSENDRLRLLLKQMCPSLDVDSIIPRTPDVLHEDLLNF

CCc1ccccc1NC1c2ccccc2C(=O)N1Cc1ccco1 (stereo not drawn)
IC50 [1]: > 50 µM (not active) | IC50 [2]: 15.6 µM (not active)

CC1Cc2ccccc2N1Cc1nc(O)c2ccc(C(F)(F)F)cc2n1 (stereo not drawn)
AC50 [3]: 0.0282 µM (inconclusive) | IC50 [4]: > 100 µM (not active) | AC50 [5]: 25.1 µM (inconclusive)

COC1(OC)N=C(N)C2(C#N)C(c3ccc4c(c3)OCO4)C12C#N (stereo not drawn)
EC50 [6]: 64.3 µM (active) | EC50 [7]: 59.9 µM (active) | IC50 [8]: > 93.1 µM (not active)

c1ccc(-c2nc(NCCN3CCCCC3)c3ccccc3n2)cc1
IC50 [9]: > 80 µM (inactive) | IC50 [10]: 64.3 µM (inactive)

c1coc(-c2nnc3sc(Cc4cccs4)nn23)c1
IC50 [11]: < 1.56 µM (active) | IC50 [12]: 4.41 µM (not active)

CCOC(=O)[C@@H](N)CS
IC50 [13]: > 40 µM (inactive) | IC50 [14]: 14.3 µM (inactive)

Cc1ccc(NC(=O)C(C)c2ccc([N+](=O)[O-])cc2)cc1Cl (stereo not drawn)
IC50 [1]: 11.3 µM (not active) | IC50 [2]: 13.4 µM (not active)

Nc1c(C(=O)Nc2ccc3c(c2)OCCO3)nnn1Cc1cccc(Cl)c1
IC50 [15]: 9.25 µM (active) | IC50 [16]: > 111 µM (not active)

CC(C)[C@]1(NC(=O)[C@H]2C=C3c4cccc5[nH]cc(c45)C[C@H]3N(C)C2)O[C@@]2(O)[C@H]3CCCN3C(=O)[C@H](Cc3ccccc3)N2C1=O
AC50 [17]: 7.94 µM (inconclusive)

O=C(CCNC(=O)c1ccc(Cl)cc1)NC1CCCc2ccccc21 (stereo not drawn)
IC50 [18]: 13.4 µM (active) | IC50 [19]: 19.8 µM (active) | CC50 [20]: 40.2 µM (active)

COc1ccc(-c2csc(N(CCCBr)C(=O)c3ccccc3Cl)n2)cc1
CC50 [21]: 78.2 µM (active) | IC50 [22]: > 66.6 µM (active)

Cc1cccc2cc(/C=C3\N=C(c4ccccc4)OC3=O)c(N3CCOCC3)nc12
IC50 [4]: 1.35 µM (active) | EC50 [23]: 0.685 µM (active)

CNC(=O)[C@@H]1C[C@H]1[C@@H](NC(=O)CNC(=O)OCc1ccccc1)c1ccccc1
AC50 [24]: 15.8 µM (inconclusive)

CCc1nn(C(C)C(=O)NCCN2CCN(c3cccc(C)c3C)CC2)c(=O)c2cc3occc3n12 (stereo not drawn)
EC50 [25]: > 50 µM (not active)
